Measurements published in ChEMBL document CHEMBL5465560, “Selectivity Literature for EUbOPEN Chemogenomic Library” (2024).

Key:
[1] = molecular target: T1, Serine/threonine-protein kinase Nek2 (Homo sapiens) (UniProt P51955); assay: Selectivity interaction (Millipore kinase profiler) EUB0000124b NEK2; details: at 10 µM
T1 sequence (whole entry): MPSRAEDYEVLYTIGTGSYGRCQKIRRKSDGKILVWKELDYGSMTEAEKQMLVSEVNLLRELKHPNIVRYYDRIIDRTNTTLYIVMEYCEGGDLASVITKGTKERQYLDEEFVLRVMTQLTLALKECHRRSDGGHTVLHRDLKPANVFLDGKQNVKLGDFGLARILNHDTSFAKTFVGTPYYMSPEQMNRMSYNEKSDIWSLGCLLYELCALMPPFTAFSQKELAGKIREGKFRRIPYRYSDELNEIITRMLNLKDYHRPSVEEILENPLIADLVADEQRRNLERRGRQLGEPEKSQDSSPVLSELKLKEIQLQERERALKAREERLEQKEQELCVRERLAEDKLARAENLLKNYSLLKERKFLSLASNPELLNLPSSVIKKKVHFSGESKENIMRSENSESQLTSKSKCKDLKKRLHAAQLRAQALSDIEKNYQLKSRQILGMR

[2] = molecular target: T2, Tyrosine-protein kinase receptor TYRO3 (Homo sapiens) (UniProt Q06418); assay: Selectivity interaction (Millipore kinase profiler) EUB0000124b TYRO3; details: at 10 µM
T2 sequence (whole entry): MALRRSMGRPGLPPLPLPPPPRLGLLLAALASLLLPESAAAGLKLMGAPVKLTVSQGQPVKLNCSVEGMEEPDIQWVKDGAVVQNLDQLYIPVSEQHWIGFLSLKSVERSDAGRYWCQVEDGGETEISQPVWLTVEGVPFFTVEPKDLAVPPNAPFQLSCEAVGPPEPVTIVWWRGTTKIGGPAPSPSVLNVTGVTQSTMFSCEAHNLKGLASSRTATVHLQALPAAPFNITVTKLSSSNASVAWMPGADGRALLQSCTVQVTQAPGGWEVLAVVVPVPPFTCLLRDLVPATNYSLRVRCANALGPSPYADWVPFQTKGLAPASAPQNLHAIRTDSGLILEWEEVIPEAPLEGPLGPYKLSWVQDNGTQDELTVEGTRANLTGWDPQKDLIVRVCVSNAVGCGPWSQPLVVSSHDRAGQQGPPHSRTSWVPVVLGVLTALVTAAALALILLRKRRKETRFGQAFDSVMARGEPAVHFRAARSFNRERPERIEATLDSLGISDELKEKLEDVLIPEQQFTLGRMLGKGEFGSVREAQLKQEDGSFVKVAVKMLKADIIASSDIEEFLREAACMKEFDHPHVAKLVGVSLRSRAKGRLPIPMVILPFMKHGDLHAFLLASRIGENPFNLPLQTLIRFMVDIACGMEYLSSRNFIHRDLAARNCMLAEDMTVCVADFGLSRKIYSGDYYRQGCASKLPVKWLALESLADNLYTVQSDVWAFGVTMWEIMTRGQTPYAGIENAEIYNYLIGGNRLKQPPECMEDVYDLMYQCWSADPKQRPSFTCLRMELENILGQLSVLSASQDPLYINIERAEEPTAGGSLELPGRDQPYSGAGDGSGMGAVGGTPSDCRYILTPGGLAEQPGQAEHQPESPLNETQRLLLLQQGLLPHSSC

[3] = molecular target: Cyclin-dependent kinase 2/cyclin A (Homo sapiens, UniProt P24941); assay: Selectivity interaction (Enyzmatic assay) EUB0000601a CDK2; type: protein-complex assay
[4] = molecular target: Ribosomal protein S6 kinase alpha-5 (Homo sapiens) (UniProt O75582); assay: Selectivity interaction (KinomeScan (DiscoverX)) EUB0000607a RPS6KA5; details: at 10 µM
Sequence of Ribosomal protein S6 kinase alpha-5 (Homo sapiens) (O75582 whole entry, looked up): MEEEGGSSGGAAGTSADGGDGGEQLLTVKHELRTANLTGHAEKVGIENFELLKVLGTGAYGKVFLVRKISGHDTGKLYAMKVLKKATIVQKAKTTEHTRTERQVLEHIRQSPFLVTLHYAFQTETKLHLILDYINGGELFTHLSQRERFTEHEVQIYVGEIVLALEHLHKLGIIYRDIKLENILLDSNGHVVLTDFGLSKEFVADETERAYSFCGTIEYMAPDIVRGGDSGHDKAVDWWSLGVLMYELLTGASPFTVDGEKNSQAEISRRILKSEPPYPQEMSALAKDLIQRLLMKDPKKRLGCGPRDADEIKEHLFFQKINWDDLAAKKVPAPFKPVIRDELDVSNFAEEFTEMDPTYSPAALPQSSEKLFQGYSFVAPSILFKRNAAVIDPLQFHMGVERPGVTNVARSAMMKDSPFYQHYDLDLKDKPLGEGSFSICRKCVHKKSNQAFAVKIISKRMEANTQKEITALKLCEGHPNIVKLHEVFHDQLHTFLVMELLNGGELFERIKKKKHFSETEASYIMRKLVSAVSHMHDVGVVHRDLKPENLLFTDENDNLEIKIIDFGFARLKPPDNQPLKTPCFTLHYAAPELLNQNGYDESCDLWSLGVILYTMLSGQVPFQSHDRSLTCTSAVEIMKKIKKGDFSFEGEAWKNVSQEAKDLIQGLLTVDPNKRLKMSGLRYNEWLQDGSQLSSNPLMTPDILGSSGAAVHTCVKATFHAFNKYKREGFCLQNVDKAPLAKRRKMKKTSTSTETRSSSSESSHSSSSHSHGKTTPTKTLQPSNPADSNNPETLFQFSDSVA

[5] = molecular target: T3, Activin receptor type-1 (Homo sapiens) (UniProt Q04771); assay: Selectivity interaction (Kinase panel (Invitrogen)) EUB0000639a ACVR1; details: at 200 nM
T3 sequence (whole entry): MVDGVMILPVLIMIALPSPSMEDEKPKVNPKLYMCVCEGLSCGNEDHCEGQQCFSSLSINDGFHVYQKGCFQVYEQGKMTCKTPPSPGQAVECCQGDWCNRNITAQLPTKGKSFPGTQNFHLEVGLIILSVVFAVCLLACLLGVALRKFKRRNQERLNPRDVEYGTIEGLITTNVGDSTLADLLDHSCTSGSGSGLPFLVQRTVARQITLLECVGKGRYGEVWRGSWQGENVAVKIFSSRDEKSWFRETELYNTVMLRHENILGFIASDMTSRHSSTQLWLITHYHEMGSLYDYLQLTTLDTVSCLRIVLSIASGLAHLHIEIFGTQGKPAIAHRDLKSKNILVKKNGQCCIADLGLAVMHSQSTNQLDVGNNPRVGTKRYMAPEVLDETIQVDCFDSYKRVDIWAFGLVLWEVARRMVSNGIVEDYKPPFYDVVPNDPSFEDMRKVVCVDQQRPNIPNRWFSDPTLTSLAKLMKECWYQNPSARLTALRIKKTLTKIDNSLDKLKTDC

[6] = molecular target: T4, Muscle, skeletal receptor tyrosine-protein kinase (Homo sapiens) (UniProt O15146); assay: Selectivity interaction (KinomeScan (DiscoverX)) EUB0000092b MUSK; details: at 10 µM
T4 sequence (whole entry): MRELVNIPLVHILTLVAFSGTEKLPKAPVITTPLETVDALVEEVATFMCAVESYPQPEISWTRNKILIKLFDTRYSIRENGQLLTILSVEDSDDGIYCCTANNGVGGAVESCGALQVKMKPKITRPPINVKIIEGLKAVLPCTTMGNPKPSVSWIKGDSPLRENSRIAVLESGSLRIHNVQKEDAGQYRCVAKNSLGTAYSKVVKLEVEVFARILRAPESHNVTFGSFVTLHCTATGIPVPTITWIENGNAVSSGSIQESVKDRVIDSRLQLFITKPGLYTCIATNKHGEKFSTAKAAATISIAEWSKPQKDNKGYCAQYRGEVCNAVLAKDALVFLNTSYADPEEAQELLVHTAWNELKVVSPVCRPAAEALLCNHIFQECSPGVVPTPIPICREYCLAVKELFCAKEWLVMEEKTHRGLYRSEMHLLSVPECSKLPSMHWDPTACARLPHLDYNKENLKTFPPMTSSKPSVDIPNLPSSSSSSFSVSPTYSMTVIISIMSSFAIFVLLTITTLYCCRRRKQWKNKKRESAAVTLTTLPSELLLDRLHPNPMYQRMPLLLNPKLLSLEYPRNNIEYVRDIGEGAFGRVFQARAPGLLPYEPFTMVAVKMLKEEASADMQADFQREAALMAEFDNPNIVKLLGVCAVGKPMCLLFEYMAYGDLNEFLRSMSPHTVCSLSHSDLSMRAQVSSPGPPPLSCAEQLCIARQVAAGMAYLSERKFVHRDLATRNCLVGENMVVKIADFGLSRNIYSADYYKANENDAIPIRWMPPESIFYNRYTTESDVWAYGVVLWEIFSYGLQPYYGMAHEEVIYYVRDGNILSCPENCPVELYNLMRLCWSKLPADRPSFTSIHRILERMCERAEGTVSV

## CC(=O)Nc1cccc(-n2c(=O)n(C3CC3)c(=O)c3c(Nc4ccc(I)cc4F)n(C)c(=O)c(C)c32)c1
[1]
  % of control: 119%
[2]
  % of control: 112%

## CCc1cc(Nc2nccc(-c3c(-c4ccc(OC)c(C(=O)Nc5c(F)cccc5F)c4)nc4ccccn34)n2)c(OC)cc1N1CCC(N2CCN(S(C)(=O)=O)CC2)CC1
[3]
  IC50: > 10 µM

## CNC(=O)Nc1ccc(-c2nc(N3CC4CCC(C3)O4)c3cnn(C4CCC5(CC4)OCCO5)c3n2)cc1
[4]
  % of control: 86%

## CC[C@@H]1[C@H](F)C(=O)N[C@@H]1COc1nccc2cc(C(N)=O)c(OC)cc12 [ZIMLOVISERTIB]
[5]
  % of inhibition: 25.7%

## CCC(=O)N1CCN(c2ccc(-n3c(=O)ccc4cnc5ccc(-c6cnc7ccccc7c6)cc5c43)cc2C(F)(F)F)CC1
[6]
  % of control: 100%
